# Source: patent publication US7015221B2, “2,4-disubstituted triazine derivatives” (Janssen Pharmaceutica, N.V., priority 1998, dated 2006)
# Key:
# [1] = Cytotoxicity in mock-infected MT-4 cells (MTT); type: cell-based; details: human, concentration reducing absorbance of mock-infected MT-4 control by 50%
melting point [°C],Compound,CC50 [1] [µM]
–,"Cc1cc(C)c(Oc2ncnc(Nc3ccc(C#N)cc3)n2)c(C)c1 [Compound 2, 4-[[4-(2,4,6-trimethylphenoxy)-1,3,5-triazin-2-yl]amino]benzonitrile]",> 100
–,"Cc1cc(C)c(Sc2ncnc(Nc3ccc(C#N)cc3)n2)c(C)c1 [Compound 4, 4-[[4-[(2,4,6-trimethylphenyl)thio]-1,3,5-triazin-2-yl]amino]benzonitrile]",> 100
245 to 247,"CC(C)c1cc(Br)c(Nc2ncnc(Nc3ccc(C#N)cc3)n2)c(Br)c1 [Compound 8, 4-[[4-[[2,6-dibromo-4-(1-methylethyl)phenyl]amino]-1,3,5-triazin-2-yl]amino]benzonitrile]",–
